Laboratory results: patent publication US20050215641A1, “Compositions comprising reverse isomers of conjugated linoleic acid” (priority 2004, published 2005)
Marks after values point to notes of the source that are not given here.

Tests used:
lactating Holstein cows = assay: Milk fat depression model, abomasal infusion of CLA supplements, 4x4 Latin square (Example 4); type: in vivo; settings: for inhibitory effects on lipid synthesis: milk fat depression model, general statement; for Milk fat yield reduced / Milk fat % / Milk fat kg/d: 5 g/d of isomer of interest; for Milk fat yield reduced: 5 d; for Milk fat yield reduced / transfer efficiency of specific CLA isomers within respective treatment groups: P<0.001; for Milk fat % / Milk fat kg/d: average of day 4 and 5 of supplementation; for transfer efficiency of specific CLA isomers within respective treatment groups: abomasal infusion 5 g/d
Text: Four rumen-fistulated lactating Holstein cows (149±18 DIM) were randomly assigned in a 4×4 Latin square experiment. Treatments were abomasal infusions of 1) ethanol (control), 2) trans-10, cis-12 CLA supplement (positive control), 3) trans-9, trans-11 CLA supplement, and 4) trans-9, cis-11 CLA supplement. The trans-10, cis-12 and trans-9, trans-11 CLA supplements were of high purity (>90%), whereas the trans-9, cis-11 CLA supplement consisted mainly of 3 CLA isomers: trans-9, cis-11 (32%), cis-9, trans-11 (29%) and trans-9, trans-11 (17%). CLA supplements supplied 5 g/d of the CLA isomer of interest and the daily dose was provided by infusion at 6 h intervals. Treatment periods were 5 d in length with a 7 d washout interval. Milk yield and DMI were unaffected by treatment (P>0.05). Milk fat yield was reduced 27% by the trans-10, cis-12 CLA treatment and 15% by the trans-9, cis-11 CLA treatment, while the trans-9, trans-11 CLA treatment had no effect (P<0.001). Milk protein content and yield were reduced by the trans-9, trans-11 CLA treatment only (P<0.01). The transfer efficiency of specific CLA isomers within respective treatment groups was 22% for trans-10, cis-12 CLA, 21% for trans-9, trans-11 CLA and 46% for trans-9, cis-11 CLA (P<0.001). […] The data are summarized in Tables 4 and 5 and FIGS. 3 and 4.

cows = assay: Milk fat depression model, continuous abomasal infusion of CLA isomer emulsions (Example 3); type: in vivo; settings: for inhibitory effects on lipid synthesis: milk fat depression model, general statement; for Yield Fat / Concentration Fat: abomasal infusion of emulsion, 1 g/L CLA, over four days; for Yield Fat: mean treatment effects; for Concentration Fat: milk
Protocol: When CLA is prepared with alkaline isomerization of linoleic acid, the isomers t10,c12 and c9,t11 are formed. Further, trans, trans isomers of 9,11 and 10,12 can be formed catalytically at high temperatures, as well as t8,c10 and c11,t13. […] This example describes, for the first time, a biological effect of the c10,t12 isomer of CLA.
Emulsions of three different isomer preparations (see Table 2; t10,c12; t10,t12; and a mixture of t10, c12; c10,t12 and t10,t12 isomers; prepared as described in Example 1) were prepared essentially the same way as described by Chouinard, et al., J. Nutr. 129:1579 [1999]. The concentration of CLA in these emulsions was 1 g/L and the emulsions were administered continuously to cows at the rate of 3 1/24 h over four days as described by Chouinard, et al., J. Nutr. 129:1579 [1999]. Briefly, the emulsions were continuously infused into the abomasum via infusion lines that pass through the rumen cannula and omasal canal and peristaltic pumps. Milk was sampled daily and concentration of milk fat was determined by infrared analysis using Milko-Scan 133B analyser (Foss Electric, Hillerød, Denmark). […] Table 3 presents the mean treatment effects on intake and milk production.

[1] = Peroxide values (PV) by ferric thiocyanate method after storage; type: physicochemical; settings: after storage in open glass
Text: The present invention also contemplates stabilization of the c10,t12, c10,c12, t9,c11 and/or c9,c11 compositions by preventing oxidation of the compounds. The present invention is not limited to any one mechanism. Indeed, an understanding of the mechanism of the invention is not necessary to produce the composition or perform the methods of the present invention. […] After storage in open glass, the PV of CLA was 32; in comparison, the value for linoleic acid was 370.

## CCCCCC/C=C\C=C/CCCCCCCC(=O)O [c9,c11]
Lactating Holstein cows
  inhibitory effects on lipid synthesis: strong inhibitory effects

## CCCCC/C=C\C=C/CCCCCCCCC(=O)O [c10,c12, c10,c12 octadecadienoic acid]
cows
  inhibitory effects on lipid synthesis: strong inhibitory effects

## CCCCC/C=C/C=C\CCCCCCCCC(=O)O [c10,t12, c10,t12 octadecadienoic acid]
cows; concluded from the effect of the isomer mixture versus purified t10,c12
  inhibitor of lipid synthesis: stronger inhibitor of lipid synthesis than t10,c12
cows
  inhibitory effects on lipid synthesis: strong inhibitory effects

## CCCCC/C=C\C/C=C\CCCCCCCC(=O)O [linoleic acid]
[1]
  peroxide values (PV): 370

## CCCCCC/C=C/C=C/CCCCCCCC(=O)O [t9, t11 CLA]
Lactating Holstein cows
  Milk fat yield reduced: no effect
  Milk fat %: 4.03^a %
  Milk fat kg/d: 0.770^a kg/d
  transfer efficiency of specific CLA isomers within respective treatment groups: 21%

## CCCCCC/C=C\C=C\CCCCCCCC(=O)O [t9,c11, t9,c11 octadecadienoate]
Lactating Holstein cows
  inhibitory effects on lipid synthesis: strong inhibitory effects

## CCCCC/C=C\C=C\CCCCCCCCC(=O)O [t10, c12, t10,c12 octadecadienoic acid]
cows
  Yield Fat: 573^ab g/day
  Concentration Fat: 29.1^b g/kg
Lactating Holstein cows
  Milk fat yield reduced: 27%
  Milk fat %: 2.54^d %
  Milk fat kg/d: 0.541^c kg/d
  transfer efficiency of specific CLA isomers within respective treatment groups: 22%

## CCCCC/C=C/C=C/CCCCCCCCC(=O)O [t10, t12, t10,t12 CLA]
cows
  Yield Fat: 694^a g/day
  Concentration Fat: 7.2^a g/kg
cows; purified form
  effect on the concentration of milk fat: did not have any effect
